From the supplement of paper PMC5579334

Assays:
STS26T [1] = experiment: relative IC50 (inflection point of fitted dose-response curve, CellTiter-Glo viability, 72 h; top asymptote may be below 50% inhibition); higher = less potent
Outline: (§1)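 After seeding 750–1000 cells per well of MPNST cell lines or primary human Schwann cells into 384-well plates preprinted with each compound at five concentrations in 10-fold steps, plates were kept 72 h at 37 °C, 5% CO2. Viability was read as CellTiter-Glo ATP luminescence relative to vehicle and positive-control wells, with duplicates averaged where present. The data were fitted with four-parameter logistic models. Drug sensitivity score and relative IC50, censored at the top concentration, derive from the fits, and percent inhibition refers to the top concentration.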

HSC2 [2] = experiment: as above
Outline: as §1

HS-Sch-2 = experiment: as above
Outline: as §1

ST8814 [3] = experiment: as above
Outline: as §1

HSC1 [4] = experiment: as above
Outline: as §1

S462 = experiment: as above
Outline: as §1

HSC2 [5] = experiment: relative IC50 (inflection point of fitted dose-response curve, CellTox-Green cytotoxicity, 72 h; top asymptote may be below 50%); higher = less potent
Outline: (§2)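 For 72 h at 37 °C, MPNST cell lines and primary human Schwann cells were exposed in 384-well plates to five 10-fold compound dilutions. CellTox-Green, added before seeding at a final 1:1000 dilution, gave fluorescence from DNA released by disrupted cells. Signals were scaled to vehicle and positive-control wells, cultures failing plate quality control were left out, and four-parameter logistic fits were applied. Relative IC50 and drug sensitivity score were derived from the fits, with IC50 censored at the top concentration.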

ST8814 [6] = experiment: as above
Outline: as §2

S1507-2 = experiment: as above
Outline: as §2

HS-PSS [7] = experiment: as above
Outline: as §2

HSC1 [8] = experiment: as above
Outline: as §2

HS-PSS [9] = experiment: relative IC50 (inflection point of fitted dose-response curve, CellTiter-Glo viability, 72 h; top asymptote may be below 50% inhibition); higher = less potent
Outline: as §1

YST-1 = experiment: as above
Outline: as §1

STS26T [10] = experiment: relative IC50 (inflection point of fitted dose-response curve, CellTox-Green cytotoxicity, 72 h; top asymptote may be below 50%); higher = less potent
Outline: as §2

SMILES	relative IC50 (STS26T [1]) [µM]	relative IC50 (HSC2 [2]) [µM]	relative IC50 (HS-Sch-2) [µM]	relative IC50 (ST8814 [3]) [µM]	relative IC50 (HSC1 [4]) [µM]	relative IC50 (S462) [µM]	relative IC50 (HSC2 [5]) [µM]	relative IC50 (ST8814 [6]) [µM]	relative IC50 (S1507-2) [µM]	relative IC50 (HS-PSS [7]) [µM]	relative IC50 (HSC1 [8]) [µM]	relative IC50 (HS-PSS [9]) [µM]	relative IC50 (YST-1) [µM]	relative IC50 (STS26T [10]) [µM]
Sc1ncnc2nc[nH]c12 [Mercaptopurine]	1.27	> 10	0.64	0.193	> 10	1.46	> 10	> 10	> 10	> 10	> 10	–	–	–
CN(Cc1cnc2nc(N)nc(N)c2n1)c1ccc(C(=O)N[C@@H](CCC(=O)O)C(=O)O)cc1 [Methotrexate]	0.0149	–	0.0892	0.195	> 5	0.0276	> 5	–	> 5	> 5	> 5	> 5	0.0609	0.314
C[C@H]1C[C@@H]2[C@H]([C@@H](O)C[C@@]3(C)[C@H]2CC[C@]3(O)C(=O)CO)[C@@]2(C)C=CC(=O)C=C12 [Methylprednisolone]	> 10	> 10	–	–	> 10	–	> 10	> 10	> 10	> 10	> 10	> 10	–	> 10
CCCCCCCCCCCCCCCCCCOP(=O)([O-])OC1CC[N+](C)(C)CC1 [Perifosine aq/PBS]	0.602	> 2.5	–	–	> 2.5	–	> 2.5	–	> 2.5	–	> 2.5	–	–	0.963
C[C@]12C=CC(=O)C=C1CC[C@@H]1[C@@H]2[C@@H](O)C[C@@]2(C)[C@H]1CC[C@]2(O)C(=O)CO [Prednisolone]	> 10	> 10	> 10	–	> 10	> 10	> 10	> 10	> 10	> 10	> 10	> 10	–	> 10
CC(C)(C)c1cc(NC(=O)Nc2ccc(-c3cn4c(n3)sc3cc(OCCN5CCOCC5)ccc34)cc2)no1 [Quizartinib]	–	0.402	–	–	0.197	0.179	> 1	> 1	> 1	> 1	> 1	> 1	0.153	> 1
CNC(=O)c1cc(Oc2ccc(NC(=O)Nc3ccc(Cl)c(C(F)(F)F)c3)c(F)c2)ccn1 [Regorafenib]	1.69	2.05	3.57	1.34	2.77	1.7	> 10	3.16	> 10	> 10	> 10	3.58	1.7	–
CN1CCN(c2nc(C3=C(c4c[nH]c5ccccc45)C(=O)NC3=O)c3ccccc3n2)CC1 [Sotrastaurin]	> 10	> 10	> 10	–	> 10	–	> 10	> 10	> 10	> 10	> 10	> 10	–	> 10
CC(C)n1cnc2c(NCCc3ccc(O)cc3)nc(-c3csc4ccccc34)nc21 [StemRegenin 1]	3.83	2.2	3.54	2.52	3.83	–	> 10	> 10	> 10	> 10	> 10	3.2	> 10	–
C=CC[C@@H]1/C=C(\C)C[C@H](C)C[C@H](OC)[C@H]2O[C@@](O)(C(=O)C(=O)N3CCCC[C@H]3C(=O)O[C@H](/C(C)=C/[C@@H]3CC[C@@H](O)[C@H](OC)C3)[C@H](C)[C@@H](O)CC1=O)[C@H](C)C[C@@H]2OC [Tacrolimus]	> 10	> 10	> 10	–	–	> 10	> 10	> 10	> 10	> 10	> 10	> 10	> 10	> 10
Cn1nnc2c(C(N)=O)ncn2c1=O [Temozolomide]	> 10	> 10	–	–	> 10	> 10	> 10	> 10	> 10	> 100	> 10	–	–	> 10
O=C1CCC(N2C(=O)c3ccccc3C2=O)C(=O)N1 (configuration not stated) [Thalidomide]	> 10	> 10	–	–	> 10	> 10	> 10	> 10	> 10	> 10	> 10	> 10	> 10	–
O=C(c1ccc(C(=O)N2CCC(N3CCCC3)CC2)c(Nc2ccccc2)c1)N1CCC(N2CCCC2)CC1 [UNC1215]	> 30	> 30	–	–	> 30	> 30	> 30	> 30	> 30	> 30	> 30	–	> 30	–
CCCC(CCC)C(=O)O [Valproic acid aq]	254	217	–	168	269	–	> 1000	–	> 1000	–	> 1000	–	–	–
CCCS(=O)(=O)Nc1ccc(F)c(C(=O)c2c[nH]c3ncc(-c4ccc(Cl)cc4)cc23)c1F [Vemurafenib]	1.84	1.46	3.92	> 10	1.74	> 10	> 10	–	> 10	> 10	> 10	3.73	> 10	1.17
